Assays:
[1] = Drug metabolism in CD-1 mouse assessed as 3-O-methylM23 formation by measuring Tmax at 10 mg/kg, po measured for 24 hrs by UPLC-MS/MS analysis; format: ADME, organism-based; details: in vivo
[2] = Half life in CD-1 mouse at 1 mg/kg, iv measured for 24 hrs by UPLC-MS/MS analysis; format: ADME, organism-based; details: in vivo
[3] = Drug metabolism in CD-1 mouse assessed as 3-O-methylM23 formation by measuring half life at 10 mg/kg, po measured for 24 hrs by UPLC-MS/MS analysis; format: ADME, organism-based; details: in vivo
[4] = Drug metabolism in CD-1 mouse assessed as 3-O-methylM23 formation by measuring Cmax at 1 mg/kg, iv measured for 24 hrs by UPLC-MS/MS analysis; format: ADME, organism-based; set-up: dose 1 mg/kg, time 24 hrs, route iv; details: in vivo
[5] = Tmax in CD-1 mouse at 10 mg/kg, po measured for 24 hrs by UPLC-MS/MS analysis; format: ADME, organism-based; details: in vivo
[6] = Half life in CD-1 mouse at 10 mg/kg, po measured for 24 hrs by UPLC-MS/MS analysis; format: ADME, organism-based; details: in vivo
[7] = Drug metabolism in CD-1 mouse assessed as 3-O-methylM23 formation by measuring AUC (0 to 24 hrs) at 10 mg/kg, po by UPLC-MS/MS analysis; format: ADME, organism-based; set-up: time 24 hrs, dose 10 mg/kg, route po; details: in vivo
[8] = Drug metabolism in CD-1 mouse assessed as 3-O-methylM23 formation by measuring half life at 1 mg/kg, iv measured for 24 hrs by UPLC-MS/MS analysis; format: ADME, organism-based; details: in vivo
[9] = AUC (0 to 24 hrs) in CD-1 mouse at 1 mg/kg, iv by UPLC-MS/MS analysis; format: ADME, organism-based; set-up: time 24 hrs, dose 1 mg/kg, route iv; details: in vivo
[10] = Cmax in CD-1 mouse at 1 mg/kg, iv measured for 24 hrs by UPLC-MS/MS analysis; format: ADME, organism-based; set-up: dose 1 mg/kg, time 24 hrs, route iv; details: in vivo
[11] = Cmax in CD-1 mouse at 10 mg/kg, po measured for 24 hrs by UPLC-MS/MS analysis; format: ADME, organism-based; set-up: dose 10 mg/kg, time 24 hrs, route po; details: in vivo
[12] = AUC (0 to 24 hrs) in CD-1 mouse at 10 mg/kg, po measured for 24 hrs by UPLC-MS/MS analysis; format: ADME, organism-based; set-up: time 24 hrs, dose 10 mg/kg, route po; details: in vivo
[13] = Drug metabolism in CD-1 mouse assessed as 3-O-methylM23 formation by measuring AUC (0 to 24 hrs) at 1 mg/kg, iv by UPLC-MS/MS analysis; format: ADME, organism-based; set-up: time 24 hrs, dose 1 mg/kg, route iv; details: in vivo
[14] = Drug metabolism in CD-1 mouse assessed as 3-O-methylM23 formation by measuring Cmax at 10 mg/kg, po measured for 24 hrs by UPLC-MS/MS analysis; format: ADME, organism-based; set-up: time 24 hrs, dose 10 mg/kg, route po; details: in vivo
[15] = system: Transthyretin (Homo sapiens), P02766 [V142I]; experiment: Stabilization of TTR V122I mutant (unknown origin) expressed in Escherichia coli BL21(DE3) assessed as reduction in urea-induced tetramer dissociation at 3.6 uM preincubated for 30 mins followed by urea addition measured for 100 hrs by fluorescence based assay relative to control; set-up: scale not given: the % may be the effect or the level left; details: time 100.5 hrs
MRC5 = experiment: Cytotoxicity against human MRC5 cells assessed as cell viability upto 100 uM incubated for 72 hrs by PrestoBlue assay; format: toxicity, cell-based; details: mrc5, 72 h
[16] = system: Transthyretin (Homo sapiens), P02766 [V50M]; experiment: Stabilization of TTR V30M mutant (unknown origin) expressed in Escherichia coli BL21(DE3) assessed as inhibition of TTR aggregation at 20 uM incubated for 30 mins followed by acidification measured for 72 hrs by turbidimetry relative to control; details: time 72.5 hrs
Transthyretin [17] = biological target: Transthyretin (Homo sapiens, UniProt P02766, V142I); experiment: Binding affinity to TTR V122I mutant (unknown origin) expressed in Escherichia coli BL21(DE3) assessed as dissociation constant by ITC analysis
[18] = system: Transthyretin (Homo sapiens), P02766 [V142I]; experiment: Binding affinity to TTR V122I mutant (unknown origin) expressed in Escherichia coli BL21(DE3) assessed as change in enthalpy at 100 uM by ITC analysis
Transthyretin [19] = biological target: T1, Transthyretin (Homo sapiens, UniProt P02766); experiment: Stabilization of wild-type TTR (unknown origin) expressed in Escherichia coli BL21(DE3) assessed as inhibition of TTR aggregation incubated for 30 mins followed by acidification measured for 72 hrs by turbidimetry relative to control; details: time 72.5 hrs
[20] = Volume of distribution in CD-1 mouse at 1 mg/kg, iv measured for 24 hrs by UPLC-MS/MS analysis; format: ADME, organism-based; details: in vivo
[21] = system: Transthyretin (Homo sapiens), P02766 [V50M]; experiment: Binding affinity to TTR V30M mutant (unknown origin) expressed in Escherichia coli BL21(DE3) assessed as change in gibbs free energy at 100 uM by ITC analysis
[22] = Volume of distribution in CD-1 mouse at 10 mg/kg, po measured for 24 hrs by UPLC-MS/MS analysis; format: ADME, organism-based; details: in vivo
[23] = system: Transthyretin (Homo sapiens), P02766 [V50M]; experiment: Displacement of [125I]-T4 from TTR V30M mutant in human plasma incubated for 1 hr by densitometry relative to control; format: cell-free
[24] = system: Transthyretin (Homo sapiens), P02766 [V50M]; experiment: Binding affinity to TTR V30M mutant (unknown origin) expressed in Escherichia coli BL21(DE3) assessed as change in enthalpy at 100 uM by ITC analysis
HeLa = experiment: Cytotoxicity against human HeLa cells assessed as cell viability upto 100 uM incubated for 72 hrs by PrestoBlue assay; format: toxicity, cell-based
[25] = Clearance in CD-1 mouse at 1 mg/kg, iv measured for 24 hrs by UPLC-MS/MS analysis; format: ADME, organism-based; details: in vivo
[26] = Elimination rate constant in CD-1 mouse at 1 mg/kg, iv measured for 24 hrs by UPLC-MS/MS analysis; format: ADME, organism-based; details: in vivo
[27] = system: Transthyretin (Homo sapiens), P02766 [V50M]; experiment: Binding affinity to TTR V30M mutant (unknown origin) expressed in Escherichia coli BL21(DE3) assessed as change in entropy at 100 uM by ITC analysis
Transthyretin [28] = biological target: T1, Transthyretin; experiment: Binding affinity to wild-type TTR (unknown origin) expressed in Escherichia coli BL21(DE3) assessed as change in gibbs free energy at 100 uM by ITC analysis
HepG2 = experiment: Cytotoxicity against human HepG2 cells assessed as cell viability upto 100 uM incubated for 72 hrs by PrestoBlue assay; format: toxicity, cell-based; details: hepg2, 72 h
[29] = system: Transthyretin (Homo sapiens), P02766 [V50M]; experiment: Stabilization of TTR V30M mutant (unknown origin) expressed in Escherichia coli BL21(DE3) assessed as reduction in urea-induced tetramer dissociation at 3.6 uM preincubated for 30 mins followed by urea addition measured for 100 hrs by fluorescence based assay relative to control; set-up: scale not given: the % may be the effect or the level left; details: time 100.5 hrs
[30] = Elimination rate constant in CD-1 mouse at 10 mg/kg, po measured for 24 hrs by UPLC-MS/MS analysis; format: ADME, organism-based; details: in vivo
Transthyretin [31] = biological target: T1, Transthyretin; experiment: Binding affinity to wild-type TTR (unknown origin) expressed in Escherichia coli BL21(DE3) assessed as change in enthalpy at 100 uM by ITC analysis
[32] = system: Transthyretin (Homo sapiens), P02766 [V142I]; experiment: Stabilization of TTR V122I mutant (unknown origin) expressed in Escherichia coli BL21(DE3) assessed as inhibition of TTR aggregation at 20 uM incubated for 30 mins followed by acidification measured for 72 hrs by turbidimetry relative to control; details: time 72.5 hrs
Transthyretin [33] = biological target: T1, Transthyretin; experiment: Stabilization of wild-type TTR (unknown origin) expressed in Escherichia coli BL21(DE3) assessed as inhibition of TTR aggregation at 20 uM incubated for 30 mins followed by acidification measured for 72 hrs by turbidimetry relative to control; details: time 72.5 hrs
[34] = Clearance in CD-1 mouse at 10 mg/kg, po measured for 24 hrs by UPLC-MS/MS analysis; format: ADME, organism-based; details: in vivo
Transthyretin [35] = biological target: T1, Transthyretin; experiment: Displacement of [125I]-T4 from TTR in human plasma incubated for 1 hr by densitometry relative to control; format: cell-free
Transthyretin [36] = biological target: Transthyretin (Homo sapiens, UniProt P02766, V50M); experiment: Binding affinity to TTR V30M mutant (unknown origin) expressed in Escherichia coli BL21(DE3) assessed as dissociation constant by ITC analysis
Transthyretin [37] = biological target: T1, Transthyretin; experiment: Binding affinity to wild-type TTR (unknown origin) expressed in Escherichia coli BL21(DE3) assessed as change in entropy at 100 uM by ITC analysis
[38] = system: Transthyretin (Homo sapiens), P02766 [V142I]; experiment: Potency index, ratio of Kd for Tolcapone to test compound for TTR V122I mutant (unknown origin) expressed in Escherichia coli BL21(DE3) assessed as dissociation constant by ITC analysis
[39] = system: Transthyretin (Homo sapiens), P02766 [V50M]; experiment: Potency index, ratio of Kd for Tolcapone to test compound for TTR V30M mutant (unknown origin) expressed in Escherichia coli BL21(DE3) assessed as dissociation constant by ITC analysis
[40] = system: Transthyretin (Homo sapiens), P02766 [V142I]; experiment: Binding affinity to TTR V122I mutant (unknown origin) expressed in Escherichia coli BL21(DE3) assessed as change in gibbs free energy at 100 uM by ITC analysis
Transthyretin [41] = biological target: T1, Transthyretin; experiment: Stabilization of wild-type TTR (unknown origin) expressed in Escherichia coli BL21(DE3) assessed as inhibition of TTR aggregation at 1:1 ratio of TTR:compound incubated for 30 mins followed by acidification measured for 72 hrs by turbidimetry relative to control; details: time 72.5 hrs
Transthyretin [42] = biological target: T1, Transthyretin; experiment: Binding affinity to wild-type TTR (unknown origin) expressed in Escherichia coli BL21(DE3) assessed as dissociation constant by ITC analysis
[43] = Oral bioavailability in CD-1 mouse at 10 mg/kg measured for 24 hrs by UPLC-MS/MS analysis; format: ADME, organism-based; details: in vivo
[44] = system: Transthyretin (Homo sapiens), P02766 [V142I]; experiment: Binding affinity to TTR V122I mutant (unknown origin) expressed in Escherichia coli BL21(DE3) assessed as change in entropy at 100 uM by ITC analysis
Transthyretin [45] = biological target: T1, Transthyretin; experiment: Stabilization of wild-type TTR (unknown origin) expressed in Escherichia coli BL21(DE3) assessed as reduction in urea-induced tetramer dissociation at 3.6 uM preincubated for 30 mins followed by urea addition measured for 100 hrs by fluorescence based assay relative to control; set-up: scale not given: the % may be the effect or the level left; details: time 100.5 hrs
Transthyretin [46] = biological target: T1, Transthyretin; experiment: Potency index, ratio of Kd for Tolcapone to test compound for wild-type TTR (unknown origin) expressed in Escherichia coli BL21(DE3) assessed as dissociation constant by ITC analysis
[47] = system: Transthyretin (Homo sapiens), P02766 [V50M]; experiment: Stabilization of TTR V30M mutant in human plasma assessed as degree of tetramer stability at 19.1 uM incubated overnight followed by urea addition measured after 5 hrs by isoelectric focusing based densitometry relative to control; format: cell-free

Structure (SMILES): O=C(c1cc(O)cc(F)c1)c1cc(O)c(O)c([N+](=O)[O-])c1
- Tmax [1]: < 15 min
- half-life [2]: 90 min
- t1/2 [3]: 2.8 h
- Cmax [4]: 555.3 ng/mL
- Tmax [5]: < 15 min
- half-life [6]: 54 min
- AUC [7]: 209.1 ng·h/mL
- t1/2 [8]: 2.7 h
- AUC(0-t) at 24 h [9]: 761 ng·h/mL
- Cmax [10]: 1360 ng/mL
- Cmax [11]: 744 ng/mL
- AUC(0-t) at 24 h [12]: 866 ng·h/mL
- AUC [13]: 462.1 ng·h/mL
- Cmax [14]: 96.7 ng/mL

Structure (SMILES): COc1cc(C(=O)c2cc(O)cc(F)c2)cc([N+](=O)[O-])c1O
- Activity [15]: 92.5%
- Activity (MRC5): Non-Toxic
- inhibition [16]: 92%
- half-life [2]: 210 min
- Kd (Transthyretin [17]): 14 nM
- deltaH [18]: -16.1 kcal/mol
- inhibition (Transthyretin [19]): > 87.5%
- Vd [20]: 1.57 L/kg
- deltaG [21]: -10.2 kcal/mol
- Vd [22]: 4.482 L/kg
- Activity [23]: 94.5%
- deltaH [24]: -11 kcal/mol
- Activity (HeLa): Non-Toxic
- clearance [25]: 5.25 mL/min/kg
- k el at 24 h [26]: 5.58e-05 s⁻¹
- -TdeltaS [27]: 0.8 kcal/mol
- Tmax [5]: 30 min
- deltaG (Transthyretin [28]): -10.6 kcal/mol
- half-life [6]: 606 min
- Activity (HepG2): Non-Toxic
- Activity [29]: 79.2%
- k el at 24 h [30]: 1.92e-05 s⁻¹
- deltaH (Transthyretin [31]): -13.4 kcal/mol
- inhibition [32]: < 90%
- AUC(0-t) at 24 h [9]: 3160 ng·h/mL
- inhibition (Transthyretin [33]): 89.2%
- CL/F [34]: 5.13 mL/min/kg
- Cmax [10]: 4040 ng/mL
- Activity (Transthyretin [35]): 97.3%
- Kd (Transthyretin [36]): 36 nM
- -TdeltaS (Transthyretin [37]): 2.8 kcal/mol
- Ratio [38]: > 3
- Ratio [39]: > 12
- deltaG [40]: -10.7 kcal/mol
- Cmax [11]: 4180 ng/mL
- inhibition (Transthyretin [41]): > 60%
- Kd (Transthyretin [42]): 16 nM
- AUC(0-t) at 24 h [12]: 26900 ng·h/mL
- bioavailability [43]: 85.1%
- -TdeltaS [44]: 5.4 kcal/mol
- Activity (Transthyretin [45]): 94.1%
- Ratio (Transthyretin [46]): > 3
- Activity [47]: 17.4%
